# Reference: paper PMC8954792 (Viruses, 2022)
# Like-named read-outs stand apart in the source and are kept apart here.
# Columns and labels:
# Huh-7 cells = assay: Cytotoxicity (CCK-8) on Huh-7 cells
# HIV-1 6-HB = HIV-1 6-HB (Human immunodeficiency virus type 1, UniProt P04578); assay: Inhibition of HIV-1 6-HB formation (ELISA); type: biochemical; details: HIV-1 6-HB formation measured by ELISA
# SARS-CoV-2 PsV [1] = type: cell-based
# H7N9 PsV = assay: microbe, parasite or virus in culture; type: cell-based, influenza virus; details: read-out: IC50 H7N9
# NiV = assay: microbe, parasite or virus in culture; type: cell-based, Nipah virus
# [2] = test system: authentic ZIKV PRVABC59 (2015/Puerto Rico); assay: microbe, parasite or virus in culture; type: cell-based; details: read-out: IC50
# [3] = test system: authentic IAV H1N1 (A/California/04/2009); type: cell-based, influenza virus
# hACE2-293T cells = assay: Cytotoxicity (CCK-8) on hACE2-293T cells
# cell-free MERS-CoV PsV [4] = test system: cell-free MERS-CoV PsV
# VSV PsV = assay: microbe, parasite or virus in culture; type: cell-based, vesicular stomatitis virus; details: read-out: IC50
# MERS-CoV PsV [5] = test system: MERS-CoV PsV
# EBOV (Sudan) = assay: microbe, parasite or virus in culture; type: cell-based, Ebola virus
# SARS-CoV PsV [6] = test system: SARS-CoV PsV
# cell-free SARS-CoV PsV [7] = test system: cell-free SARS-CoV PsV
# H5N1 PsV = assay: microbe, parasite or virus in culture; type: cell-based, influenza virus; details: read-out: IC50 H5N1
# authentic EV71 = assay: CPE reduction assay, authentic EV71; type: cell-based, human enterovirus 71 virus; details: RD cells
# LASV = assay: organism not typed; type: cell-based, Lassa fever virus
# HIV-1 Bal.01 PsV [8] = assay: Sucrose density gradient assay to evaluate viral inactivation; details: HIV-1 Bal.01 PsV treated with 50 μM at 37 °C for 2 h
# HIV-1 Bal.01 PsV [9] = assay: HIV-1 PsV inhibition in presence of recombinant unilamellar liposomes; type: cell-based; details: compared with the PBS group
# cell-free SARS-CoV-2 PsV = assay: Inactivation of cell-free SARS-CoV-2 PsV; type: cell-based
# EBOV (Zaire) = assay: microbe, parasite or virus in culture; type: cell-based, Ebola virus
# HPV PsV = type: cell-based, human papilloma virus
# authentic HCoV-OC43 = assay: CPE reduction assay, authentic HCoV-OC43; type: cell-based; details: HCoV-OC43 infection, RD cells, CCK-8
# Vero E6 cells = type: cell-based
# [10] = test system: authentic IAV H3N2 (A/Victoria/361/2011); type: cell-based, influenza virus
# [11] = Cytotoxicity (CCK-8) on Huh-7 cells; details: human
# [12] = test system: authentic SARS-CoV-2 WT (nCoV-SH01); assay: microbe, parasite or virus in culture; type: cell-based; details: Severe acute respiratory syndrome coronavirus 2, Vero C1008
# [13] = Cytotoxicity (CCK-8) on hACE2-293T cells; details: human
# cell-free SARS-CoV PsV [14] = assay: microbe, parasite or virus in culture; details: Severe acute respiratory syndrome coronavirus
# SARS-CoV PsV [15] = assay: microbe, parasite or virus in culture; details: Severe acute respiratory syndrome coronavirus
# [16] = test system: pseudotyped SARS-CoV-2 Gamma (P.1); assay: microbe, parasite or virus in culture; type: cell-based; details: Severe acute respiratory syndrome coronavirus 2, Caco-2
# [17] = test system: pseudotyped SARS-CoV-2 Alpha (B.1.1.7); assay: microbe, parasite or virus in culture; type: cell-based; details: Severe acute respiratory syndrome coronavirus 2, Caco-2
# cell-free MERS-CoV PsV [18] = assay: microbe, parasite or virus in culture; details: Middle East respiratory syndrome-related coronavirus, Huh-7
# [19] = test system: pseudotyped SARS-CoV-2 Omicron (B.1.1.529); assay: microbe, parasite or virus in culture; type: cell-based; details: Severe acute respiratory syndrome coronavirus 2, Caco-2
# SARS-CoV-2 PsV [20] = assay: microbe, parasite or virus in culture; type: cell-based; details: Severe acute respiratory syndrome coronavirus 2
# MERS-CoV PsV [21] = assay: microbe, parasite or virus in culture; details: Middle East respiratory syndrome-related coronavirus, Huh-7
# [22] = test system: pseudotyped SARS-CoV-2 Beta (B.1.351); assay: microbe, parasite or virus in culture; type: cell-based; details: Severe acute respiratory syndrome coronavirus 2, Caco-2
# in vitro = details: dog
# [23] = Severe acute respiratory syndrome coronavirus 2
# Chain of HIV-1 6-HB (P04578 536-581, added parts left off): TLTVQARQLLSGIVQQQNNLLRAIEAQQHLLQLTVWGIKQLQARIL
# Chain of HIV-1 6-HB (P04578 536-581, added parts left off): as above
smiles,measurement,setting,value
"O=C(O)c1cc(-c2ccc(C=C3SC(=S)N(CCc4ccccc4)C3=O)o2)ccc1Cl [FD001, furanyl methylidene rhodanine]",CC50,Huh-7 cells,42600 ± 1310 nM
same,IC50,HIV-1 6-HB,17400 nM
same,inhibition of SARS-CoV-2 PsV infection after unbound compound washed from cells,SARS-CoV-2 PsV [1],not effective in inhibiting viral infection after washing
same,IC50,H7N9 PsV,850 ± 210 nM
same,IC50,NiV,410 ± 70 nM
same,IC50,[2],4360 nM
same,inhibition of authentic IAV H1N1 infection,[3],inhibited
same,CC50,hACE2-293T cells,28800 ± 1240 nM
same,EC50,cell-free MERS-CoV PsV [4],1120 ± 160 nM
same,SI CC50/EC50,cell-free MERS-CoV PsV [4],38.08
same,IC50,VSV PsV,20 nM
same,IC50,MERS-CoV PsV [5],290 ± 30 nM
same,SI CC50/IC50,MERS-CoV PsV [5],147.07
same,IC50,EBOV (Sudan),390 ± 40 nM
same,IC50,SARS-CoV PsV [6],180 ± 20 nM
same,SI CC50/IC50,SARS-CoV PsV [6],160.22
same,EC50,cell-free SARS-CoV PsV [7],1580 ± 210 nM
same,SI CC50/EC50,cell-free SARS-CoV PsV [7],18.25
same,IC50,H5N1 PsV,260 ± 30 nM
same,inhibition of infection of authentic EV71,authentic EV71,could not inhibit
same,IC50,LASV,440 ± 100 nM
same,integrity of the viral membrane (band distribution of p24),HIV-1 Bal.01 PsV [8],did not disrupt the integrity of the viral membrane
same,"antiviral activity, liposomes added to HIV-1 PsV pretreated with compound",HIV-1 Bal.01 PsV [9],good antiviral activity
same,"inhibitory activity against HIV-1 PsV, compound pretreated with liposomes",HIV-1 Bal.01 PsV [9],no different from that of the PBS group
same,EC50,cell-free SARS-CoV-2 PsV,670 nM
same,IC50,EBOV (Zaire),1040 ± 110 nM
same,inhibition of infection of nonenveloped HPV PsV,HPV PsV,could not inhibit
same,IC50,authentic HCoV-OC43,480 nM
same,CC50,MDCK cells,> 50000 nM
same,fluorescence intensity of treated cells (binding to cells),Vero E6 cells,positively correlated with compound concentration
same,inhibition of authentic IAV H3N2 infection,[10],inhibited
C#CCOc1ccc(CCN2C(=O)/C(=C/c3ccc(-c4ccc(Cl)c(C(=O)O)c4)o3)SC2=S)cc1 [FD007],CC50 at 48 h,[11],> 50000 nM
same,IC50,[12],170 nM
same,IC50,"H7N9 PsV; Influenza A virus, H7N9, MDCK",2130 ± 200 nM
same,CC50 at 48 h,[13],33100 ± 1020 nM
same,EC50,cell-free SARS-CoV PsV [14],1540 ± 140 nM
same,SI CC50/EC50,cell-free MERS-CoV PsV [4],>56.18
same,SI CC50/IC50,MERS-CoV PsV [5],>250
same,SI CC50/IC50,SARS-CoV PsV [6],301.00
same,IC50,SARS-CoV PsV [15],110 ± 10 nM
same,SI CC50/EC50,cell-free SARS-CoV PsV [7],21.50
same,IC50,"H5N1 PsV; Influenza A virus, H5N1, MDCK",470 ± 110 nM
same,IC50,[16],530 nM
same,IC50,[17],290 nM
same,EC50,cell-free MERS-CoV PsV [18],890 ± 90 nM
same,EC50,cell-free SARS-CoV-2 PsV; [23],960 nM
same,IC50,[19],3090 nM
same,IC50,SARS-CoV-2 PsV [20],320 nM
same,IC50,MERS-CoV PsV [21],200 ± 30 nM
same,IC50,[22],810 nM
same,CC50,in vitro,> 50000 nM
C#CCOCCOc1ccc(CCN2C(=O)/C(=C/c3ccc(-c4ccc(Cl)c(C(=O)O)c4)o3)SC2=S)cc1 [FD008],CC50 at 48 h,[11],38900 ± 1220 nM
same,IC50,[12],50 nM
same,IC50,"H7N9 PsV; Influenza A virus, H7N9, MDCK",2510 ± 330 nM
same,CC50 at 48 h,[13],23400 ± 780 nM
same,EC50,cell-free SARS-CoV PsV [14],190 ± 20 nM
same,SI CC50/EC50,cell-free MERS-CoV PsV [4],56.38
same,SI CC50/IC50,MERS-CoV PsV [5],125.48
same,SI CC50/IC50,SARS-CoV PsV [6],468.80
same,IC50,SARS-CoV PsV [15],50 ± 10 nM
same,SI CC50/EC50,cell-free SARS-CoV PsV [7],123.37
same,IC50,"H5N1 PsV; Influenza A virus, H5N1, MDCK",510 ± 140 nM
same,IC50,[16],690 nM
same,IC50,[17],340 nM
same,EC50,cell-free MERS-CoV PsV [18],690 ± 130 nM
same,EC50,cell-free SARS-CoV-2 PsV; [23],410 nM
same,IC50,[19],740 nM
same,IC50,SARS-CoV-2 PsV [20],460 nM
same,IC50,MERS-CoV PsV [21],310 ± 20 nM
same,IC50,[22],420 nM
same,CC50,in vitro,> 50000 nM
CCOc1ccc(CCN2C(=O)/C(=C/c3ccc(-c4ccc(Cl)c(C(=O)O)c4)o3)SC2=S)cc1 [FD009],CC50 at 48 h,[11],27500 ± 1430 nM
same,inhibition of SARS-CoV-2 PsV infection after unbound compound washed from cells,SARS-CoV-2 PsV [1],not effective in inhibiting viral infection after washing
same,IC50,[12],30 nM
same,IC50,"H7N9 PsV; Influenza A virus, H7N9, MDCK",1410 ± 270 nM
same,CC50 at 48 h,[13],17400 ± 640 nM
same,EC50,cell-free SARS-CoV PsV [14],120 ± 10 nM
same,SI CC50/EC50,cell-free MERS-CoV PsV [4],94.97
same,SI CC50/IC50,MERS-CoV PsV [5],98.36
same,IC50,SARS-CoV PsV [15],30 ± 10 nM
same,SI CC50/EC50,cell-free SARS-CoV PsV [7],144.75
same,IC50,"H5N1 PsV; Influenza A virus, H5N1, MDCK",150 ± 40 nM
same,IC50,[16],470 nM
same,IC50,[17],550 nM
same,EC50,cell-free MERS-CoV PsV [18],290 ± 20 nM
same,EC50,cell-free SARS-CoV-2 PsV; [23],160 nM
same,IC50,[19],580 nM
same,IC50,SARS-CoV-2 PsV [20],50 nM
same,IC50,MERS-CoV PsV [21],280 ± 20 nM
same,IC50,[22],240 nM
same,CC50,in vitro,> 50000 nM
